The text below walks through data of US11466054B2, “Inhibitors of metastasis” (BIOMARCK PHARMACEUTICALS LTD., priority 2013, dated 2022).

Where no end group is shown, it is not given here. The star is where a group is joined. Myristoyl = CCCCCCCCCCCCCC(=O)*

For one assay, the system named is CL1-5 cells. The assay is described as follows: Transwell migration assay, CL1-5 cells pretreated with peptide.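 For migration index: index equals control cell count divided by treated cell count.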 In kind it is cell-based, human. The following applies: 12 hours; for cell number: control approximately 105. Here is the method:
CL1-5 cells, an aggressively metastatic cell line derived from a human adenocarcinoma, were cultured in RPMI 1640 media with 10% FBS, 37° C. at 95% […]/5% CO2 until ready for use. Transwell plates (24-well, 8-um pore size; Costar, Cambridge, Mass., USA) were used to conduct the migration assay. The lower chambers of the Transwell plates were filled with 600 μl of basal media containing 10% FBS. The cells (1×10^5) were pretreated with 50 or 100 μM of the indicated test peptide for 30 min, and then suspended in 100 μl of basal media containing 1% BSA and added to the upper chamber, and the cells then were incubated at 37° C. for 12 hr. The cells on the upper surface of the filters were removed using cotton swabs, and the cells that migrated to the lower surface of the filters were washed, fixed, and stained with hematoxylin and counted under the microscope. The percent change in migration was determined by counting the number of cells that migrated to the lower surface of the filters. At least 3 separate microscopic fields were counted per membrane (n=4).
Primary CL1-5 cells originated from human adenocarcinoma lung cancer Transwell plates with 24-wells, 8-μ pore size (Costar, Cambridge, Mass., USA) were used to conduct the migration assay. The lower chambers of the transwell plates were filled with 600 μL of basal media containing 10% FBS. The cells (1-2×10^5) were suspended in 100 μL of basal media containing 1% BSA. The test peptide at desired concentration was added to the upper chamber directly or after preincubation with cancer cells. The plates were then incubated at 37° C. for 12 hours. The cells on the upper surface of the filters were removed using cotton swabs. The cells that migrated to the lower surface of the filters were washed, fixed, and stained with hematoxylin and counted under the microscope. At least five separate microscopic fields are counted per membrane (n=3). The percent change in migration was determined by counting the number of cells that migrated to the lower surface of the filters.
The count means the actual number of cells which migrated to the lower chamber and counted by a light microscope at 40× magnification, presented as the mean number of cells in 10 randomly chosen fields for each treatment.
The “index” was calculated by dividing the number of cells that migrated in the presence of peptides by the number of cells that migrated randomly (control group). […]. This calculation can reflect the extent that the migration of cells was blocked by 30 minute pretreatment with MANS-related peptides.

The test system of another assay is A549. The assay is described as follows: Transwell migration assay, A549 cells. To be noted: 12 hr; for migration index numbers relative to control and to RNS peptide / migrated cell numbers relative to control and to RNS peptide: A549, 50 μm; for migrated cell numbers relative to control and to RNS peptide / cell numbers in comparison to control, RNS peptide and MANS peptide: FIG. 11; for cell numbers in comparison to control, RNS peptide and MANS peptide: A549, 25 μm. Type of assay: cell-based, human. Here is the method: The human adenocarcinoma-derived alveolar epithelial cell line A549 (an invasive cell line) was obtained from the American Type Culture Collection (ATCC) and was cultured in RPMI-1640 supplemented with 10% fetal bovine serum and 100 U/ml penicillin/streptomycin, in 75 cm^2 tissue culture flasks. The cells reached confluence by the third day of culture at 37° C. in an atmosphere of 95% air and 5% CO2 and were maintained by serial passage.
The test peptides (MANS, RNS, BIO-11006, BIO-11000, BIO-11002, BIO-91200, and BIO-10901) were dissolved in PBS at a pH of 7.0; slow vortex mixing for about two hours aided solubility.
Transwell plates (24-well, […]; Costar, Cambridge, Mass., USA) were used to conduct the migration assay. The lower chambers of the transwell plates were filled with 600 μl of basal medium containing 10% FBS. The cells (1×10^5) were suspended in 100 μl of basal medium containing 1% BSA and added to the upper chamber, and the plates incubated at 37° C. with 5% CO2 for 12 hr in PBS (control), or the indicated test peptides at 10, 25 or 50 μM. The cells on the upper surface of the filters were removed using cotton swabs. The cells that migrated to the lower surface of the filters were washed, fixed, and stained with hematoxylin and counted under the microscope. The percent change in migration is determined by counting the number of cells that migrated to the lower surface of the filters. At least four separate microscopic fields are counted per membrane, with a total of three replicate experiments at each concentration. The statistics software “Prizm” was used for data analysis.

The next assay concerns PC-9 cells. Description: Orthotopic lung injection xenograph model, PC-9 cells in nude mice. In kind it is in vivo. The following applies: 50 nmoles i.p. once every three days, 25 days. Here is the method: The metastatic activity of cancer cells in vivo after treatment with MANS peptide or BIO-11006 was assessed in the orthotopic lung injection xenograph model. After pretreatment with either PBS, or PBS+MANS, BIO-11006 (SEQ ID NO: 106), or the control RNS peptide at 100 μM for 4 hours, PC-9 cells were injected into the left lobe of the lung of nude mice. Seven days later, these mice were given systemic treatment with either PBS only (Con), RNS (additional control peptide), MANS or BIO-11006 at 50 nmoles per intraperitoneal injection once every three days. At 25 days (6 injections) post-seeding of these tumor cells, mice were sacrificed and the number of metastasized tumor nodules in the contralateral lung and other organs was counted.

Where [1] appears, read: CL1-5, 50 μmolar, FIG. 8A, control=1, higher value signifies less migration.
Where [2] appears, read: CL1-5, 100 μmolar, FIG. 8B, control=1, higher value signifies less migration.
The mark [3] stands for this setting: CL1-5, pretreatment at 50 μmolar, FIG. 7A.
Where [4] appears, read: CL1-5, pretreatment at 100 μmolar, FIG. 7B.
The mark [5] stands for this setting: CL1-5, 50 μmolar pretreatment, FIG. 9.
Where [6] appears, read: CL1-5, 50 μmolar pretreatment, FIG. 9, control=1.0.
The mark [7] stands for this setting: CL1-5, 100 μmolar pretreatment, FIG. 10.
Where [8] appears, read: CL1-5, 100 μmolar pretreatment, FIG. 10, control=1.0.

In the case of “N-acetyl-GAQFSKTAA (Ac-GAQFSKTAA; listed as Homo sapiens) [BIO-10901]”, the migration index result in the assay with CL1-5 cells (setting [1]) was “approximately 1.75”; with CL1-5 cells (setting [2]), “approximately 2.7”. For the same substance, the migrated cell numbers result in the assay on CL1-5 cells (setting [3]) is given as “approximately 60”; in the assay with CL1-5 cells (setting [4]) it was “approximately 35”. Besides, the “migration index numbers relative to control and to RNS peptide” value with A549 was “increased migration index numbers”. Further, the “migrated cell numbers relative to control and to RNS peptide” value with A549 is on record as “decreased migrated cell numbers”.

In the case of “GTAPAAEGAGAEVKRASAEAKQAF (Myristoyl-GTAPAAEGAGAEVKRASAEAKQAF) [RNS peptide, reference compound]”, the “Metastases (affected mice/total mice) Diaphragm” value with PC-9 cells is given as 3/4. In the assay with PC-9 cells, the “Metastases (affected mice/total mice) Heart” value was 3/4. The “Metastases (affected mice/total mice) Intestines” value in the assay with PC-9 cells is given as 1/4. Moreover, the “Metastases (affected mice/total mice) Spleen” value in the assay with PC-9 cells is given as 2/4. The “No. of Metastatic Lung Tumors Mean ± SE (L't)” value in the assay with PC-9 cells (left lung) is given as 1.00 ± 0.40;. The “No. of Metastatic Lung Tumors Mean ± SE (R't)” value in the assay on PC-9 cells (right lung) turned out to be 5.75 ± 2.01. Besides, in the assay on PC-9 cells (tumor at site of injection, cells pretreated 100 μM 4 hours), the “Tumor Size (mm) Mean ± SE” value stood at 1.72 ± 0.41 mm. Further, the cell number result with CL1-5 cells (setting [5]) is on record as “approximately 90”; in the assay on CL1-5 cells (setting [7]), “approximately 95”. The migration index result in the assay on CL1-5 cells (setting [6]) is “approximately 1.3”; in the assay on CL1-5 cells (setting [1]), “approximately 1.1”; in the assay with CL1-5 cells (setting [8]), “approximately 1.2”; in the assay on CL1-5 cells (setting [2]), “approximately 1”. In addition, the migrated cell numbers result is given as “approximately 95” in the assay on CL1-5 cells (setting [3]) and “approximately 90” in the assay with CL1-5 cells (setting [4]).

As for “N-myristoyl-GAQFSKTAAK (Myristoyl-GAQFSKTAAK; listed as Homo sapiens) [BIO-11000]”, the results for the cell number entry in the assay with CL1-5 cells (setting [5]) and in the assay with CL1-5 cells (setting [7]) were “approximately 70” and “approximately 50”, respectively. For the same substance, the migration index result in the assay on CL1-5 cells (setting [6]) was “approximately 1.5”; with CL1-5 cells (setting [8]) it was “approximately 2.3”. For the same substance, the “migration index numbers relative to control and to RNS peptide” value in the assay on A549 is “increased migration index numbers”. In the assay with A549, the “migrated cell numbers relative to control and to RNS peptide” value is reported as “decreased migrated cell numbers”.

Take “N-myristoyl-GAQFSKTAAK-NH2 (Myristoyl-GAQFSKTAAK-NH2; SMILES CCCCCCCCCCCCCC(=O)NCC(=O)N[C@@H](C)C(=O)N[C@@H](CCC(N)=O)C(=O)N[C@@H](Cc1ccccc1)C(=O)N[C@@H](CO)C(=O)N[C@@H](CCCCN)C(=O)N[C@H](C(=O)N[C@@H](C)C(=O)N[C@@H](C)C(=O)N[C@@H](CCCCN)C(N)=O)[C@@H](C)O) [BIO-11002]”: the migration index result is recorded as “approximately 2.7” with CL1-5 cells (setting [1]) and “approximately 3.8” in the assay with CL1-5 cells (setting [2]). The migrated cell numbers entry with CL1-5 cells (setting [3]) is recorded as “approximately 50”; in the assay on CL1-5 cells (setting [4]) it was “approximately 25”. Further, the “cell numbers in comparison to control, RNS peptide and MANS peptide” value with A549 is “significantly reduced cell numbers”. In addition, in the assay with A549, the “migration index numbers relative to control and to RNS peptide” value was “increased migration index numbers”. Besides, the “migrated cell numbers relative to control and to RNS peptide” value in the assay on A549 was “decreased migrated cell numbers”.

For the substance “N-myristoyl-AKGE (Myristoyl-AKGE; listed as Homo sapiens) [BIO-91200]”, the migration index entry with CL1-5 cells (setting [1]) is on record as “approximately 1.7”; in the assay on CL1-5 cells (setting [8]), “approximately 2.1”; in the assay on CL1-5 cells (setting [2]), “approximately 2.4”. Moreover, the cell number entry with CL1-5 cells (setting [7]) is reported as “approximately 55”. In addition, the values for the migrated cell numbers result in the assay on CL1-5 cells (setting [3]) and in the assay with CL1-5 cells (setting [4]) were “approximately 65” and “approximately 40”, respectively. The “cell numbers in comparison to control, RNS peptide and MANS peptide” value in the assay with A549 was “significantly reduced cell numbers”. The “migration index numbers relative to control and to RNS peptide” value with A549 is on record as “increased migration index numbers”. Moreover, the “migrated cell numbers relative to control and to RNS peptide” value with A549 was “decreased migrated cell numbers”.
